Earlier results on 2 compounds are cited in patent US11975103B2, “Compositions of midodrine and methods of using the same” (XENAMED CORP., priority 2016, dated 2024).

The subject of data set [1] is patients with neurogenic orthostatic hypotension.
The conditions of data set [2]: after oral administration of an immediate release tablet.

The structures appear in SMILES notation.

Consider `COc1ccc(OC)c(C(O)CNC(=O)CN)c1.Cl` (racemic) [Midodrine hydrochloride, (±)-2-amino-N-[2-(2,5-dimethoxyphenyl)-2-hydroxyethyl]acetamide monohydrochloride], for which the solubility in water entry was “soluble in water”. The “standing systolic blood pressure” value in data set [1] is on record as “significantly increases”.
Turning to `COc1ccc(OC)c(C(O)CNC(=O)CN)c1` (stereo not shown) [midodrine], in data set [2], the half-life result was “approximately 25 minutes” and the “time to peak plasma levels” value is reported as “about 30 minutes”.
